Where “and” joins values, the source holds several entries; their conditions need not be identical. Equal entries are not always repeated. Where two headings read alike, the source gives them in different places.
Experiments:
[1] = tested on: guinea pig eyes; assay: Toxicity test of intravitreally administered amphiregulin (guinea pigs); type: in vivo
Experimental: Methods and Material: Two to three-week old guinea pigs were divided into four groups:
animals that received an intravitreal administration of amphiregulin (dose: 10 ng in 5 μl) into one eye and an intravitreal administration of vehicle into the contralateral eye (n=4),
animals that received an intravitreal administration of amphiregulin (dose: 10 ng in 5 μl) into both eyes (n=4),
an animal that received intravitreal administration of amphiregulin (dose: 10 ng in 5 μl) into one eye with the contralateral eye left untreated (n=1), and
animals with both eyes left intact (n=2).
All animals were treated in accordance with the ARVO (association for Research in Vision and Ophthalmology) Statement for the Use of Animals in Ophthalmic and Vision Research and the EC Directive 86/609/EEC for animal experiments. The animals were housed at a constant temperature (22±1° C.) and in a light-controlled environment (lights on from 7 am to 7 pm) with ad libitum access to food and water.
All animals with injections received two intravitreal injections at an interval of ten days.
At each time point, the eyes were inspected for signs of toxicity. Ten days after the second injection, the animals were sacrificed by an overdose of anesthetics. Ocular biometry was performed at baseline, prior to each injection, and prior to the sacrifice of animals. The sonographic ocular biometry was performed using Aviso, The Ultrasound Platform (Quantel Medical, France) under general anesthesia, on the follow-up days 15, 25, 35 and prior the sacrifice on day 45.
After the sacrifice, the eyes of the animals were removed, post-fixed overnight in 4% paraformaldehyde, and embedded in optimal cutting temperature compound, cryosectioned and immunostained against glial activation marker (glial fibrillary acidic protein), microglial cell marker (lba-1), native guinea pig amphiregulin, and injected amphiregulin; or they were embedded in paraffin, sectioned and stained with hematoxylin and eosin for general histologic examination and histomorphometric retinal thickness measurements. In addition, the tissue was stained for apoptotic cell death detection applying the TUNEL method.

[2] = tested on: bovine RPE cell; settings: bovine RPE cells after incubation with growth factor; cited from earlier work
[3] = tested on: bovine RPE cell; settings: bovine RPE cells; cited from earlier work
[4] = tested on: eye of patient with geographic atrophy; type: in vivo, human; settings: for foveolar zone thickness upon optical coherence tomography: 69 μm at baseline
Text: Optical coherence tomography images of the fundus signs were unchanged. • On the 7th day after the injection, the eye appeared to be untouched, the conjunctival injection had subsided. Visual acuity had improved from 0.03 before the injection to 0.1. […] Upon optical coherence tomography, the foveolar zone increased in thickness from 69 μm at baseline to 71 μm at seven days after the injection, and to 73 μm two weeks later (FIGS. 3a, b).

[5] = tested on: adult rabbits' eyes; assay: Toxicity test of intravitreally administered EGF (rabbits); type: in vivo, rabbit; settings: for Intraocular pressure (IOP): injected right eye (OD), 100 ng EGF intravitreal
Experimental: The injections were performed in the upper right quadrant of the eyes in a distance of 3-4 mm from the limbus. At baseline of the study, and at specific dates after the injection the animals were examined using photography of the external eye and anterior and posterior segment of the eye, tonometry, optical coherence tomography (OCT) of the posterior fundus, and fundus photography. Four weeks after a third injection, the animals were sacrificed and the globes were histomorphometrically examined.
After sacrificing the animals, the eyes were enucleated, immediately fixed in a solution of 1% glutaraldehyde and 4% formaldehyde, and kept in that solution for seven days at room temperature. The sagittal, vertical and horizontal globe diameter were subsequently measured. A central segment with a thickness of about 8 mm and running through the optic nerve head and the pupil was cut out of the fixed globes, dehydrated in alcohol, imbedded in paraffin, sectioned for light microscopy with a slide thickness of 4-6 μm, and stained with hematoxylin eosin.
The cell number in the three retinal layers containing cell nuclei was counted. The slides for apoptotic cell death were additionally stained using the TUNEL (terminal deoxynucleotidyl transferase dUTP nick end labeling) technique.

[6] = tested on: eyes of AMD patients (geographic atrophy); assay: Series of seven AMD patients treated with intravitreal EGF; type: in vivo, human
Text: A series of seven patients were consecutively treated. […] The patients underwent weekly to two-weekly ophthalmological follow-up examinations. Three patients (patients #1, 2, and 3) received a repeated intravitreal injection after an interval of three to four weeks.

[7] = tested on: ARPE-19 cell line; assay: RPE cell proliferation (scanning spectrophotometer); type: cell-based, human; settings: dose-dependent; EGF 0.1, 10, 100 μg/L; EGF antibody 0.01, 1.0, 10 mg/L; PBS control
Experimental: (§1) Materials and Methods: The human ARPE-19 cell line was cultured in a standardized culture medium and incubated at 37° C. under 5% CO2. […] We examined the RPE cell proliferation using of a scanning spectrophotometer. In a second step, we examined the cell migration by a scratch assay.

[8] = tested on: ARPE-19 cell line; assay: RPE cell migration (scratch assay); type: cell-based, human; settings: dose-dependent; EGF 0.1, 10, 100 μg/L; EGF antibody 0.01, 1.0, 10 mg/L; PBS control
Experimental: as §1

[9] = tested on: EGFR; assay: EGFR signaling via the PI3K/Akt pathway in RPE culture; type: cell-based; settings: addition of EGF
[10] = tested on: RPE D407 cells; settings: through both PI3K and ERK/MAPK pathways; cited from earlier work
[11] = tested on: EGF-EGFR-MAPK signal transduction pathway; settings: human RPE cells in culture; concentration-dependent manner; cited from earlier work
[12] = injected eyes vs eyes injected with PBS or untouched eyes
[13] = after the repeated intravitreal injections
[14] = 0.75 μg EGF intravitreal, one line per patient (1-7)

Amphiregulin
animal weight ([1]; four groups, 10 ng in 5 μl intravitreal, two injections at ten days interval): did not differ in their weight at any time point analyzed
TUNEL positive cell numbers [1, 12]: No significant increase
microglial infiltration [1, 12]: No significant increase
retinal gliosis [1, 12]: No significant increase
intraocular inflammatory or toxic effect ([1]; repeatedly intravitreally applied, guinea pigs (summary)): did not result in an intraocular inflammatory or toxic effect

acidic fibroblast growth factor [aFGF]
RPE cell migration [2]: significantly enhanced
RPE cell DNA synthesis [3]: stimulated

basic fibroblast growth factor [bFGF]
RPE cell migration [2]: significantly enhanced
RPE cell DNA synthesis [3]: stimulated

epidermal growth factor [EGF]
subjective vision ([4]; 7th day after the injection): marked improvement in vision
Visual acuity ([4]; 7th day after the injection, 0.03 before the injection): 0.1
light differential sensitivity in the central zone (computer perimetry) ([4]; after injection, central four measurement points, 11.3 dB before): 24.8 dB per measurement point
Intraocular Pressure ([4]; human, in vivo): unchanged within normal limits
conjunctival injection ([4]; human, in vivo): had subsided
finding on the surface of the eye ([4]; human, in vivo): mixed moderate conjunctival injection
pathological reactions of the anterior segment of the eye ([4]; human, in vivo): no pathological reactions
foveolar zone thickness upon optical coherence tomography ([4]; seven days after the injection): 71 μm
central visual acuity ([4]; third day after injection): unchanged
optical coherence tomography images of the fundus ([4]; third day after injection): unchanged
peripheral vision ([4]; third day after injection): remained unchanged
subjective vision (metamorphopsias) ([4]; third day after injection): the distortions and curvatures of objects (metamorphopsias) disappeared
foveolar zone thickness upon optical coherence tomography ([4]; two weeks later): 73 μm
change in intraocular pressure (IOP) as measured by tonometry [5, 13]: No significant change
change in retinal thickness as measured by OCT [5, 13]: No significant change
Intraocular pressure (IOP) ([5]; 5 Dec. 2018): 6 mmHg
Intraocular pressure (IOP) ([5]; 29 Dec. 2018): 8 mmHg
cell count of the retinal layers (histomorphometry) ([5]; injected vs contralateral eyes, posterior pole, midpoint, equator, ora serrata region, all P-values>0.20): did not differ significantly
apoptotic cells in TUNEL staining ([5]; rabbit eyes): neither in the right eyes or in the left eyes, apoptotic cells were detected
intravital examinations of the external eye and the anterior segment (toxicity, cataract) ([5]; rabbits, repeated intravitreal injections): did not reveal any sign of toxicity or development of cataract
intraocular inflammatory or toxic effect ([5]; repeatedly intravitreally applied, rabbits (summary)): did not result in an intraocular inflammatory or toxic effect
Visual Acuity (Decimal) at last examination ([6]; 0.75 μg EGF in 50 μl intravitreal, one line per patient (1-7), follow-up one to seven weeks): 0.09 and 0.03 and 0.06 and 0.1 (2×) and 0.08 and 0.05
Intraocular Pressure [6, 14]: 17 mmHg and 16 mmHg
Quality of vision [6, 14]: Improved
Improvement in ETDRS letters ([6]; 0.75 μg EGF intravitreal, one line per patient (1-7), last examination vs before injection): 3 ETDRS letters and 8 ETDRS letters and 9 ETDRS letters and 26 ETDRS letters and 6 ETDRS letters and 11 ETDRS letters and 0 ETDRS letters
side effects ([6]; besides conjunctival vessel dilatation or circumscribed subconjunctival hemorrhage at the site of the injection): no other side effects were noted
intraocular pressure after injection, upper bound in all eyes ([6]; none of the eyes beyond this value): ≤ 21 mmHg
patients with improvement in measured visual acuity ([6]; out of seven patients, follow-up one week to seven weeks): six showed an improvement in their measured visual acuity
visual function and macular morphology ([6]; patients with geographic atrophy, intravitreal application (summary of Examples 1 and 2)): improvement in visual function and macular morphology
intraocular tolerability ([6]; patients, intravitreal application (summary statement)): well tolerated intraocularly without signs of intraocular inflammation or toxicity
cells in the anterior chamber fluid or vitreous cavity (slit lamp-based biomicroscopy) ([6]; seven patients): In none of the eyes
central visual field (perimetry) ([6]; seven patients): also improved
hemorrhages or other newly developed pathologies in the retina ([6]; seven patients): none of the eyes revealed hemorrhages or other newly developed pathologies in the retina
signs of intraocular inflammation, lens opacification, optic media clarity, intraocular pressure change ([6]; seven patients): no signs of intraocular inflammation, lens opacification, changes in the clarity of the optic media, or any significant change in intraocular pressure
thickness of the tissue in the foveolar region (fundus examination, OCT) ([6]; seven patients): tendency of an increase
RPE cell migration [2]: significantly enhanced
ARPE-19 cell proliferation [7]: increased with higher concentrations
ARPE-19 cell migration [8]: increased with higher concentrations
EGFR signaling via the PI3K/Akt pathway [9]: caused an increase
survival of RPE D407 cells [10]: stimulated survival of RPE D407 cells
EGF-EGFR-MAPK signal transduction pathway induction [11]: induces the EGF-EGFR-MAPK (mitogen-activated protein kinase) signal transduction pathway
RPE cell DNA synthesis [3]: stimulated

insulin-like growth factor-1 [IGF-1]
RPE cell migration [2]: significantly enhanced

platelet-derived growth factor [PDGF]
RPE cell migration [2]: significantly enhanced
RPE cell DNA synthesis [3]: stimulated
